Here are results for two molecules from patent US12599648B2, “Pharmaceutical composition comprising a combination of a guanylate cyclase C (GUCY2C) agonist and a short-chain fatty acid or prodrug thereof” (priority 2020, dated 2026).

Series [1] concerns colonic tumors after AOM/DSS treatment. To be noted: diet supplemented with tributyrin; Donohoe et al.; cited from earlier work.
For series [2] the following is noted: cited from earlier work.
The nature of series [3]: Caecum and colon weight and diarrhea observation in the AOM/DSS mouse trial. It is filed as in vivo, wild type mice (BALB/c). The text has this: Thirty wild type mice (BALB/c) were maintained in individually ventilated cages (specific pathogen-free conditions) and divided in four age- and gender-matching groups at the age of 4 weeks. The schematic study set up of the mouse trial using AOM/DSS-based CRC mouse model is represented in FIG. 1.
Accordingly, group A received a semi-synthetic control diet (Hoevenaars F P M, van Schothorst E M, Horakova O, Voigt A, Rossmeisl M, Pico C, Caimari A, Kopecky J, Klaus S, Keijer J. BIOCLAIMS standard diet (BIOsd): a reference diet for nutritional physiology. Genes Nutr. 2012; 7:399-404), group B received a semi-synthetic diet with fiber-supplementation (containing about 46,2 g resistant starch type 2 per 1 kg diet), group C received a semi-synthetic control diet with linaclotide supplementation in drinking water (0.069 μg/mL; replaced every second day; dosage of linaclotide was calculated based on a previous study that applied 0.207 μg/day/mouse via oral gavage (Sharman S K, Islam B N, Hou Y, Singh N, Berger F G, Sridhar S, Yoo W, Browning D D. Cyclic-GMP-Elevating Agents Suppress Polyposis in ApcMin Mice by Targeting the Preneoplastic Epithelium. Cancer Prev Res (Phila Pa). 2018; 11:81-92.) and an assumed daily intake of 3 mL H2O per mouse; this mimics a daily intake of about 0.6 mg in a 70 kg healthy human, which is close to amounts used in previous clinical studies (Weinberg D S, Lin J E, Foster N R, Della'Zanna G, Umar A, Seisler D, Kraft W K, Kastenberg D M, Katz L C, Limburg P J, et al. Bioactivity of Oral Linaclotide in Human Colorectum for Cancer Chemoprevention. Cancer Prev Res Phila Pa. 2017; 10:345-54.)), group D received a combination of fiber-supplemented diet (containing about 46,2 g resistant starch type 2 per 1 kg diet), and linaclotide (0.069 μg/mL).
FIGS. 4 a) to d) represent graphs on the effect of butyrate acting as osmotic antagonist of linaclotide or GUCY2C signaling limiting the flow of H2O to the gut lumen. […] Single dots represent single mice; statistical analysis using One-way ANOVA with Kruskal-Wallis post-test, *=p<0.05. **=p<0.01.

The conditions of series [4]: in vivo; cited from earlier work.

Each structure is given as a SMILES string. Bridge positions count the residues as written; N and C are the ends. Peptide text beside a SMILES is read from it.

Regarding `CCCC(=O)OCC(COC(=O)CCC)OC(=O)CCC` [Tributyrin, 1,3-di(butanoyloxy)propan-2-yl butanoate], the “tumor levels in the colon after AOM/DSS treatment” value in series [1] is recorded as “lowest tumor levels”. The solubility in water result in series [2] was “only poorly soluble”.
Consider `C[C@@H]1NC(=O)[C@@H]2CCCN2C(=O)[C@H](CC(N)=O)NC(=O)[C@@H]2CSSC[C@H](N)C(=O)N[C@H]3CSSC[C@H](NC1=O)C(=O)N[C@@H]([C@@H](C)O)C(=O)NCC(=O)N[C@H](C(=O)N[C@@H](Cc1ccc(O)cc1)C(=O)O)CSSC[C@H](NC(=O)[C@H](Cc1ccc(O)cc1)NC(=O)[C@H](CCC(=O)O)NC3=O)C(=O)N2` [linaclotide, Linaclotide] (H-CCEYCCNPACTGCY-OH; disulfide 1-6, 2-10, 5-13), for which the “caecum weight (indication of amounts of H2O in the gut lumen)” value in series [3] (FIG. 4a) was “higher”. Besides, the “colon weight (indication of amounts of H2O in the gut lumen)” value in series [3] (FIG. 4b) is “higher”. In addition, the side effect diarrhea result in series [3] (at the administered linaclotide concentration (0.069 μg/mL drinking water)) was “did not observe”. Moreover, in series [4], the “people taking the drug who have diarrhea” value is given as “More than 10%”.
